Patent US20030228583A1, “Biomarkers of liver response” (priority 2001, published 2003)

Columns and labels:
[1] = test system: Liver Response-Associated Features (LRFs) in liver tissue; experiment: Proteome analysis (2D electrophoresis, Reference Protocol) of liver tissue of drug-treated vs control animals: relative abundance of LRFs
Source text: Samples from animals treated with various drugs at various timepoints and various dose levels can be collected, prepared, and analysed as described herein. […] Using the following procedure, proteins in liver tissue and serum/plasma from 5 control animals and 5 animals having liver response induced through drug treatment were separated by isoelectric focusing followed by SDS-PAGE and analyzed. Samples were taken and analyzed at three different time points designated “early”, “full manifestation” and “late”. Parts 6.1.1 to 6.1.9 (inclusive) of the procedure set forth below are hereby designated as the “Reference Protocol”.
At the time of necropsy, approximately 2 g section of the liver's median lobe was removed to a conical tube and quick-frozen in liquid nitrogen. The frozen liver section was then pulverized for 1 minute using a freezer mill as follows:
Approximately 10-20 mg pulverized liver was solubilized with 10 ul protease inhibitor and 1.5 ml lysis solution and vortexed well. The sample was allowed to remain at room temperature for 10 minutes, was vortexed again, and then pelleted using an Eppendorf 5417R Centrifuge for 10 minutes at 13000g at 15 EC. The resulting supernatant was frozen at −80° C.
The sample was heated at 95° C. for 5 mins, and then allowed to cool to 20° C. 125 μl of the following buffer was then added to the sample:
This mixture was vortexed, and centrifuged at 13000 rpm for 5 mins at 15° C., and the supernatant was analysed by isoelectric focusing. An assay for protein content was carried out on the final sample (Pierce BCA Cat #23225).
Isoelectric focusing (IEF), was performed using the Immobiline® DryStrip Kit (Pharmacia BioTech), following the procedure described in the manufacturer's instructions, see Instructions for Immobilineg DryStrip Kit, Pharmacia, #18-1038-63, Edition AB (incorporated herein by reference in its entirety). Immobilized pH Gradient (IPG) strips (18 cm, pH 3-10 non-linear strips; Pharmacia Cat. #17-1235-01) were rehydrated overnight at 20° C. in a solution of 8M urea, 2% (w/v) CHAPS, 10 mM DTT, 2% (v/v) Resolytes 3.5-10, as described in the Immobiline DryStrip Users Manual. For IEF, 50 μl of supernatant (prepared as above) was loaded onto a strip, with the cup-loading units being placed at the basic end of the strip. The loaded gels were then covered with mineral oil (Pharmacia 17-3335-01) and a voltage was immediately applied to the strips according to the following profile, using a Pharmacia EPS3500XL power supply (Cat 19-3500-01):
After the final 19 hr step, the strips were immediately removed and immersed for 10 mins at 20° C. in a first solution of the following composition: 6M urea; 2% (w/v) DTT; 2% (w/v) SDS; 30% (v/v) glycerol (Fluka 49767); 0.05M Tris/HCl, pH 6.8 (Sigma Cat T-1503). The strips were removed from the first solution and immersed for 10 mins at 20° C. in a second solution of the following composition: 6M urea; 2% (w/v) iodoacetamide (Sigma 1-6125); 2% (w/v) SDS; 30% (v/v) glycerol; 0.05M Tris/HCl, pH 6.8.
A 9-16% linear polyacrylamide gradient was cast, extending up to a point 2 cm below the level of the notch in the front plate, using the Angelique gradient casting system (Large Scale Biology). Stock solutions were as follows. Acrylamide (40% in water) was from Serva (Cat. #10677). […] The gel buffer was 0.375M Tris/HCl, pH 8.8. The polymerization catalyst was 0.05% (v/v) TEMED (BioRad 161-0801), and the initiator was 0.1% (w/v) APS (BioRad 161-0700). No SDS was included in the gel and no stacking gel was used. The cast gels were allowed to polymerize at 20° C. overnight, and then stored at 4° C. in sealed polyethylene bags with 6 ml of gel buffer, and were used within 4 weeks.
A solution of 0.5% (w/v) agarose (Fluka Cat 05075) was prepared in running buffer (0.025 M Tris, 0.198 M glycine (Fluka 50050), 1% (w/v) SDS, supplemented by a trace of bromophenol blue). The agarose suspension was heated to 70° C. with stirring, until the agarose had dissolved.

Male Sprague-Dawley rats = experiment: Phenobarbital rat toxicity study (clinical observations, body weight, clinical laboratory measurements, organ weights, histopathology)
[2] = final necropsy (twelve days post dose)

## CCC1(c2ccccc2)C(=O)NC(=O)NC1=O [phenobarbital]
[1]; Early, P 0.0075
  Fold Change LRF-24: 3.34 fold
[1]; Early, P 0.0212
  Fold Change LRF-17: 1.61 fold
[1]; Early, P 0.0216
  Fold Change LRF-26: 1.33 fold
[1]; Early, P 0.0254
  Fold Change LRF-37: 3.98 fold
[1]; Late, P 0.0075
  Fold Change LRF-112: 5.38 fold
  Fold Change LRF-115: 3.16 fold
[1]; Middle, P 0.0122
  Fold Change LRF-85: 1.72 fold
[1]; Middle, P 0.0216
  Fold Change LRF-60: 1.67 fold
  Fold Change LRF-80: 1.40 fold
  Fold Change LRF-90: 1.47 fold
[1]; Middle, P 0.0345
  Fold Change LRF-66: 1.93 fold
[1]; Middle, P 0.0361
  Fold Change LRF-74: 1.42 fold
[1]; Middle, P 0.0367
  Fold Change LRF-83: 1.40 fold
Male Sprague-Dawley rats; 100 mg/kg/day oral gavage, rat
  Clinical observations: generally well tolerated with no adverse clinical signs observed in any of the control or treated groups other than decreased activity
  Survival: survived
Male Sprague-Dawley rats; 100 mg/kg/day oral, rat
  Gross pathology observations: no treatment-related gross findings
Male Sprague-Dawley rats; day 2, 100 mg/kg/day oral, rat
  Creatinine decreased: 1.7 ×
  Serum/plasma urea nitrogen decreased: 1.8 ×
  Total protein decreased: 1.1 ×
Male Sprague-Dawley rats; day 5, 100 mg/kg/day oral, rat
  Cholesterol increased: 1.5 ×
  Glucose decreased: 1.6 ×
Male Sprague-Dawley rats; day 12, 100 mg/kg/day oral, rat
  Serum/plasma urea nitrogen increased: 1.2 ×
Male Sprague-Dawley rats; days 5 and 12
  % reticulocytes: small but significant decreases
Male Sprague-Dawley rats; either interim necropsy
  Group mean body weights vs concurrent controls: No significant treatment-related changes
Male Sprague-Dawley rats; final necropsy
  Mean body weight vs concurrent controls: significant decrease
Male Sprague-Dawley rats; [2]
  Absolute liver weights: about the same as control
  Relative liver weight increased: about 1.06 × control mean
Male Sprague-Dawley rats; five days post dose
  Liver weights increased: about 1.5 × control mean
Male Sprague-Dawley rats; same time point as centrilobular hypertrophy
  Increased numbers of hepatocytes with apoptotic bodies or mitotic figures, incidence: 3 of 5
Male Sprague-Dawley rats; two days post dose
  Liver weights increased: about 1.1 × control mean
Male Sprague-Dawley rats; two days post dose (so in the source)
  Centrilobular hypertrophy, incidence: 5 of 5
Male Sprague-Dawley rats; vs vehicle control animals
  Group means of the various hematology parameters (except % reticulocytes): not altered
